These results are taken from patent US20100093716A1, “THERAPEUTIC METHODS USING WRN BINDING MOLECULES” (TRUSTEES OF BOSTON UNIVERSITY AND PRESIDENT AND FELLOWS OF …, priority 2006, published 2010).

For assay [1], the system named is Histone H2AX (γH2AX). As to the kind of experiment: γH2AX formation in human fibroblasts by immunofluorescent microscopy. To be noted: 48 hours. The class given is cell-based. As to the method:
Phosphorylation of Histone H2AX (forming γH2AX) is a marker for DNA damage in many settings and is also observed at telomeres when cells enter senescence. […] In both experiments, cells were incubated for 48 hours in the presence of SPOX-1 or 11mer T-oligo before processing for immunofluorescent microscopy.

The subject of the next assay is human fibroblasts. As to the kind of experiment: growth of newborn fibroblast cells. Format: cell-based. The settings on record: 40 μM; growth determined 2 and 4 days after plating. How it is done: The effect of SPOX compounds on growth of human fibroblasts was tested using cultures of newborn fibroblast cells. Briefly, 20,000 cells were plated per 35 mm dish. Medium containing either diluent (dimethyl sulfoxide (DMSO)) alone, SPOX-1 (40 μM) SPOX-2 (40 μM) or 11mer T-oligo (SEQ ID NO:1) was introduced at 96 hours and growth was determined 2 and 4 days after plating.

Assay [2] concerns MM-AN human melanoma cells. Nature of the assay: apoptosis of MM-AN melanoma cells by FACS analysis (propidium iodide). Format: cell-based. To be noted: 96 hours, 10 μM, 40 μM and 80 μM. How it is done: Cultures of MM-AN human melanoma cells were treated with diluent (water or DMSO) alone, a T-oligo (16mer: 5′ GTTAGGGTTAGGGTTA 3′; SEQ ID NO: 2), SPOX-1, or SPOX-2 for 96 hours, then collected and processed for FACS analysis. One concentration of the T-oligo (20 μM) and three concentrations of each SPOX compound (10 μM, 40 μM and 80 μM) were tested. Each bar is the mean of triplicate dishes +/− standard error of the mean (SEM). FACS profiles are depicted at the top of the figure.
Cultures of MM-AN human melanoma cells were treated with diluent (water or DMSO) alone, 16mer T-oligo (SEQ ID NO: 2), SPOX-337, SPOX-338 or SPOX-343 for 72 hours, then collected and processed for FACS analysis. One concentration of the T-oligo (20 μM) and three concentrations of each SPOX compound (10 μM, 40 μM and 80 μM) were tested.
A general note: A flow cytometer gives signals particle by particle.

In assay [3] the test system is MM-AN human melanoma cells. Nature of the assay: growth of MM-AN melanoma cells. The class given is cell-based. The settings on record: 40 μM; 2, 3 and 4 days after treatment. How it is done:
The effect of SPOX compounds on growth of human melanoma cells was tested using cultures of MM-AN cells. Briefly, 20,000 MM-AN cells were plated per 35 mm dish. Medium containing either diluent (DMSO) alone, SPOX-1 or SPOX-2 (40 μM) was introduced at 96 hours and growth was determined 2, 3 and 4 days after treatment.

Another assay relates to MCF-7 cells. Nature of the assay: growth of MCF-7 breast cancer cells. To be noted: 40 μM and 80 μM. The class given is cell-based, human. How it is done:
The effect of SPOX compounds on growth and apoptosis of human breast cancer cells was tested using cultures of MCF-7 cells. The effect on cell growth was tested by plating 20,000 cells per 35 mm dish. Medium containing either diluent alone (DMSO), SPOX-1 or SPOX-2 (10 μM, 40 μM and 80 μM) was introduced at 96 hours and growth was determined 8 days after plating.
The effect of SPOX compounds on growth of human breast cancer cells was tested using cultures of MCF-7 cells. The effect on cell growth was tested by plating 20,000 cells per 35 mm dish. Medium containing either diluent (water or DMSO) alone, SPOX-337, SPOX-388, SPOX-343 (10 μM, 40 μM and 80 μM) or 16mer T-oligo (SEQ ID NO: 2) was introduced at 96 hours and growth was determined 3 days after plating.

Assay [4] deals with Histone H2AX (γH2AX). Nature of the assay: γH2AX formation in MCF-7 cells, western blot. The class given is cell-based, human. The settings on record: compared with 16mer T-oligo. As to the method:
(§1) Phosphorylation of Histone H2AX (forming γH2AX) was assessed as a marker for DNA damage. Apoptosis was measured by western blot analysis to show cleavage of poly(ADP-ribose) polymerase (PARP). PARP is a substrate for caspase-3, an enzyme that mediates apoptosis, and thus cleavage of PARP by caspase-3 is indicative of ongoing apoptosis. […] Thus, both SPOX compounds induce apoptosis and formation of γH2AX, as a marker of DNA damage-like responses, in the MCF-7 breast cancer cell line.
A general note: Immunoblotting shows a protein as a band on a membrane.

The subject of assay [5] is poly(ADP-ribose) polymerase (PARP). As to the kind of experiment: PARP cleavage in MCF-7 cells, western blot. The class given is cell-based, human. To be noted: compared with TNF-α. How it is done: as §1
Assay [6] deals with WRN+ U20S human osteosarcoma cells. As to the kind of experiment: apoptosis of WRN+ U20S cells by FACS analysis. The class given is cell-based. To be noted: 96 hours; 10 μM, 40 μM and 80 μM. As to the method:
(§2) Cultures of WRN+ and WRN− U20S human osteosarcoma cells were treated with either diluent (water or DMSO) alone, 16mer T-oligo (SEQ ID NO: 2) or SPOX-1 for 96 hours, then collected and processed for FACS analysis. One concentration of the 16mer T-oligo was tested, 20 μM, and three concentrations of SPOX-1 were tested, 10 μM, 40 μM and 80 μM.

The subject of assay [7] is WRN− U20S human osteosarcoma cells. Nature of the assay: apoptosis of WRN− U20S cells by FACS analysis. Format: cell-based. To be noted: 96 hours; 40 μM and 80 μM. How it is done:
as §2

The subject of another assay is human skin explants. As to the kind of experiment: melanogenesis in human skin explants (Fontana Masson stain, image analysis). Format: cell-based. The settings on record: 80 uM; 24, 48 and 72 hours; positive control pTT 100 uM. As to the method:
Normal facial skin removed from a person at the time of facelift was carefully cut into fragments approximately 5×5 mm. The fragments were placed in tissue culture dishes in standard culture medium, under conditions known to maintain the fragments in good condition, responsive to physiologic stimuli, for at least one week (Arad et al, FASEB J. Jul. 28, 2006. [Epub]). Fragments were arranged with at least 3 per 35 mm dish and after 48 hours, one dish each was provided with fresh medium containing diluent (DMSO) alone (Dil) or SPOX-1 or SPOX-2 each at 80 uM or thymidine dinucleotide (pTT) at 100 uM as a positive control. […] The 72 hour diluent (Dil) control sample was judged to be bacterially contaminated, affecting both the overall histology and the apparent melanin content, which based on earlier experiments would be expected to be the same as at 24 and 48 hours. All other samples were believed to be healthy and to accurately represent the response to treatment.

The next assay concerns survivin. As to the kind of experiment: survivin expression in H460 lung cancer cells. The class given is cell-based, human. As to the method:
The ability of the SPOX compounds to inhibit expression of survivin, a member of the Inhibitor of Apoptosis Protein (IAP) family, was determined by treating H460 human lung cancer cells for two days with diluent (DMSO) alone, SPOX-1 (20 μM, 40 μM), SPOX-2 (20 μM, 40 μM) and T-oligo (16mer: 5′ GGTTGGTTGGTTGGTT 3′; SEQ ID NO: 3) (20 μM, 40 μM) or for 24 hours with SPOX-1 (80 μM) or SPOX-2 (80 μM). Following treatment, cells were collected, counted, and assayed for survivin expression. The results are depicted in FIG. 15.

Assay [8] concerns H460 human lung cancer cells. As to the kind of experiment: growth of H460 lung cancer cells. The class given is cell-based. To be noted: 40 μM; 1, 2, 3 and 4 days after plating. How it is done:
The effect of SPOX compounds on growth of human lung cancer cells was tested using cultures of H460 cells. Briefly, 20,000H460 cells were plated per 35 mm dish. Medium containing either diluent (DMSO) alone, SPOX-1 or SPOX-2 (40 μM) was introduced at 96 hours and growth was determined 1, 2, 3 and 4 days after plating.

The next assay relates to p53. Nature of the assay: p53 level in human fibroblasts, Western blot. The class given is cell-based. To be noted: 48 hours, compared with diluent alone. How it is done:
(§3) Human fibroblasts were treated with diluent (water or DMSO) alone, SPOX-1, SPOX-2, or 16mer T-oligo (SEQ ID NO: 2) for 48 hours after which total cellular proteins were harvested and Western blot analysis performed using anti-p53 and anti-p21 antibodies.

The subject of a further assay is p21. As to the kind of experiment: p21 level in human fibroblasts, Western blot. Format: cell-based. The settings on record: 48 hours, compared with diluent alone. As to the method: as §3

As for `C=CCOC(=O)C1C2C(=O)OC(c3ccccc3)C(c3ccccc3)N2C(c2ccc(O)cc2)C12C(=O)Nc1ccc(I)cc12` (centres unmarked) [SPOX-1], the γH2AX expression entry with Histone H2AX (γH2AX) [1] is on record as “induce γH2AX expression”. Besides, the “growth of human fibroblast cells” value with human fibroblasts is “inhibited growth”. Also, the induction of apoptosis result in assay [2] is given as “induced apoptosis with SPOX-1 having a greater effect”. Also, the “growth of MM-AN cells” value in assay [3] is “inhibited growth”. In the assay with MCF-7 cells (10 μM, growth determined 8 days after plating), the “growth of MCF-7 cells” value is on record as “inhibited growth of MCF-7 cells in a dose-dependent manner”. For the same molecule, the “growth of MCF-7 cells at higher concentrations” value in the assay on MCF-7 cells (8 days after plating) is on record as “nearly complete inhibition of growth”. Also, in the assay with Histone H2AX (γH2AX) [4], the “phosphorylation of histone H2AX (γH2AX)” value is listed as “cause phosphorylation of the histone protein H2AX”. For the same molecule, the PARP cleavage entry in assay [5] is reported as “cause PARP cleavage”. Also, the “induction of apoptosis in WRN+ U20S cells” value in [6] is “induced apoptosis in WRN+ U20S cells in a dose-dependent manner”. Also, in [7], the “induction of apoptosis in WRN− U20S cells” value is recorded as “apoptosis was also seen”. Further, the “melanogenesis (tanning) in human skin” value in the assay on human skin explants was “caused tanning, comparable to pTT”. For the same molecule, the “survivin expression at 80 μM” value with survivin (24 hours, 80 μM) is “reduced survivin expression to nearly undetectable levels”. Further, the survivin expression entry in the assay on survivin (2 days, 20 μM, 40 μM) is “dose-dependent reduction in survivin expression”. The “survivin expression at 40 μM” value in the assay with survivin (2 days, 40 μM) is “nearly undetectable”. The “growth of H460 cells” value in assay [8] was “inhibited growth”. The “level of p53” value with p53 is reported as “induced the level of p53”. The “level of p21” value in the assay with p21 is “induced the level of the p53-dependent downstream effector protein p21 to a similar degree as 16mer T-oligo”.
